Measurements reported in patent US7504400B2, “MTP inhibiting aryl piperydines or piperazines substituted with 5-membered heterocycles” (Janssen Pharmaceutica N.V., priority 2004, dated 2009).

System: Secretion of ApoB
Experiment: Quantification of the secretion of ApoB in HepG2 cells
Format: cell-based
Conditions: Homo sapiens, HepG2, 24 h, 24 hours of incubation with test compound, immunoprecipitation of apoB from medium, read-out: pIC50 value (=-log IC50 value), secretion of ApoB (converted)
Procedure: HepG2 cells were cultured in 24-well plates in MEM Rega 3 containing 10% fetal calf serum. At 70% confluency, the medium was changed and the test compound or carrier (DMSO, 0.4% final concentration) was added. After 24 hours of incubation, the medium was transferred to Eppendorf tubes and cleared by centrifugation. A sheep antibody directed against either apoB was added to the supernatant and the mixture was kept at 8° C. for 24 hours. Then, rabbit anti-sheep antibody was added and the immune complex was allowed to precipitate for 24 hours at 8° C. The immunoprecipitate was pelleted by centrifugation for 25 minutes at 1320 g and washed twice with a buffer containing 40 mM Mops, 40 mM NaH2PO4, 100 mM NaF, 0.2 mM DTT, 5 mM EDTA, 5 mM EGTA, 1% Triton-X-100, 0.5% sodium deoxycholate (DOC), 0.1% SDS, 0.2 μM leupeptin and 0.2 μM PMSF. Radioactivity in the pellet was quantified by liquid scintillation-counting. The IC50 values are usually converted to pIC50 values (=−log IC50 value) for ease of use.

Structure (SMILES) | IC50 [nM]
CCOC(=O)CNC(=O)C(c1ccccc1)N1CCN(c2ccc(-n3cnn(C(C)C)c3=O)cc2)CC1 (stereo not shown) [Compound 66] | 31.6 to 316
COC(=O)C(c1ccc(Br)cc1)N1CCC(c2ccc(-n3cnn(C(C)C)c3=O)cc2)CC1 (stereo not shown) [Compound 323] | 316 to 3160
Cc1nn(C(C)C)c(=O)n1-c1ccc(N2CCN(C(C(=O)Nc3ccccc3)c3ccccc3)CC2)cc1 (stereo not shown) [Compound 112] | 316 to 3160
CC(C)n1ncn(-c2ccc(N3CCN(C(C(=O)Nc4ccc5c(c4)OCCO5)c4ccccc4)CC3)cc2)c1=O (stereo not shown) [Compound 63] | 31.6 to 316
CCOC(=O)c1cc(NC(=O)C(Cc2ccccc2)C2CCN(c3ccc(-n4cnn(C(C)C)c4=O)cc3)CC2)ccc1C (stereo not shown) [Compound 374] | 316 to 3160
CCCNC(=O)C(c1ccccc1)N1CCN(c2ccc(-n3c(-c4ccccc4)nn(C(C)C)c3=O)cc2)CC1 (stereo not shown) [Compound 32] | 316 to 3160
CCOC(=O)c1ccc(CNC(=O)C(Cc2ccccc2)C2CCN(c3ccc(-n4cnn(C(C)c5ccccc5)c4=O)cc3)CC2)cc1C (stereo not shown) [Compound 379] | 316 to 3160
COC(=O)C(c1ccccc1)N1CCN(c2ccc(-n3nc(-c4ccccc4)n(C(C)C)c3=O)cc2)CC1 (stereo not shown) [Compound 34] | 316 to 3160
CCC(C)n1ncn(-c2ccc(N3CCN(C(C(=O)NCc4ccccc4)c4ccccc4)CC3)cc2)c1=O (stereo not shown) [Compound 22] | 31.6 to 316
CCOC(=O)C(c1ccccc1)N1CCC(c2ccc(-n3ccn([C@H](C)c4ccc(C(F)(F)F)cc4)c3=O)cc2)CC1 (stereo partly shown) [Compound 277] | 31.6 to 316
COC(=O)C(c1ccc(C)cc1)N1CCN(c2ccc(-n3cnn(C(C)c4ccccc4)c3=O)cc2)CC1 (stereo not shown) [Compound 318] | 316 to 3160
COc1cc(CNC(=O)C(c2ccccc2)N2CCN(c3ccc(-n4cnn(C(C)C)c4=O)cc3)CC2)cc(OC)c1OC (stereo not shown) [Compound 78] | 316 to 3160
CC(C)n1ncn(-c2ccc(N3CCN(CC(C(=O)NCCC#N)c4ccccc4)CC3)cc2)c1=O (stereo not shown) [Compound 102] | 316 to 3160
CCOC(=O)C(c1ccccc1)N1CCN(c2ccc(-n3ccn(C(C)c4cc(F)ccc4F)c3=O)cc2)CC1 (stereo not shown) [Compound 334] | 31.6 to 316

The remaining lines, values ahead:

IC50 [nM] | Structure (SMILES)
31.6 to 316 | CC(C)n1ncn(-c2ccc(N3CCN(CC(C(=O)N(C)C)c4ccccc4)CC3)cc2)c1=O (stereo not shown) [Compound 6]
316 to 3160 | COC(=O)c1ccc(CNC(=O)C(c2ccccc2)N2CCN(c3ccc(-n4cnn(C(C)c5ccccc5)c4=O)cc3)CC2)cc1 (stereo not shown) [Compound 294]
316 to 3160 | CC(C)n1ncn(-c2ccc(N3CCN(C(C(=O)NCCC#N)c4ccccc4)CC3)cc2)c1=O (stereo not shown) [Compound 132]
316 to 3160 | COC(=O)C(c1ccccc1)N1CCN(c2ccc(-n3cnn(C(C)C)c3=O)cn2)CC1 (stereo not shown) [Compound 146]
316 to 3160 | COC(=O)C(NC(=O)CC1CCN(c2ccc(-n3cnn(C(C)c4ccccc4)c3=O)cc2)CC1)C(C)C (stereo not shown) [Compound 401]
316 to 3160 | C=CCn1ncn(-c2ccc(N3CCC(C(C(=O)NCCC)c4ccccc4)CC3)cc2)c1=O (stereo not shown) [Compound 152]
31.6 to 316 | COC(=O)C(c1ccccc1)N1CCN(c2ccc(-n3cnn(C(C)c4ccccc4)c3=O)cc2)CC1 (stereo not shown) [Compound 204]
31.6 to 316 | CCOC(=O)C(c1ccccc1)N1CCN(c2ccc(-n3cnn(C(C)c4ccccc4F)c3=O)cc2)CC1 (stereo not shown) [Compound 350]
31.6 to 316 | CCOC(=O)c1ccc(CNC(=O)C(c2ccccc2)C2CCN(c3ccc(-n4cnn(C(C)C)c4=O)cc3)CC2)cc1C (stereo not shown) [Compound 376]
316 to 3160 | CCNC(=O)C(c1ccccc1)N1CCN(c2ccc(-n3nc(C)n(C(C)C)c3=O)cc2)CC1 (stereo not shown) [Compound 39]
316 to 3160 | CCOC(=O)C(c1ccccc1)N1CCN(c2ccc(-n3nc4cccc(C)n4c3=O)cc2)CC1 (stereo not shown) [Compound 347]
316 to 3160 | CCOC(=O)c1cc(CNC(=O)C(Cc2ccccc2)C2CCN(c3ccc(-n4cnn(C(C)c5ccccc5)c4=O)cc3)CC2)ccc1C (stereo not shown) [Compound 383]
316 to 3160 | CCOC(=O)CC(NC(=O)C(c1ccccc1)N1CCC(c2ccc(-n3cnn(C(C)C)c3=O)cc2)CC1)c1ccc2c(c1)OCO2 (stereo not shown) [Compound 351]
31.6 to 316 | COC(=O)C(c1ccccc1)N1CCC(c2ccc(-n3cnn(C(C)C)c3=O)cc2)CC1 (stereo not shown) [Compound 171]
